The source of these data is patent publication US8101598B2 (priority 2006, dated 2012).

pIC50: −log10 of the molar value. Structures can show the parent of a compound that is named as a salt.

This experiment has as its target α7-subtype of nicotinic receptors (Rattus norvegicus, UniProt Q05941). The experiment is described as follows: biochemical. In kind it is binding.

Sequence of α7-subtype of nicotinic receptors (Q05941 23-502): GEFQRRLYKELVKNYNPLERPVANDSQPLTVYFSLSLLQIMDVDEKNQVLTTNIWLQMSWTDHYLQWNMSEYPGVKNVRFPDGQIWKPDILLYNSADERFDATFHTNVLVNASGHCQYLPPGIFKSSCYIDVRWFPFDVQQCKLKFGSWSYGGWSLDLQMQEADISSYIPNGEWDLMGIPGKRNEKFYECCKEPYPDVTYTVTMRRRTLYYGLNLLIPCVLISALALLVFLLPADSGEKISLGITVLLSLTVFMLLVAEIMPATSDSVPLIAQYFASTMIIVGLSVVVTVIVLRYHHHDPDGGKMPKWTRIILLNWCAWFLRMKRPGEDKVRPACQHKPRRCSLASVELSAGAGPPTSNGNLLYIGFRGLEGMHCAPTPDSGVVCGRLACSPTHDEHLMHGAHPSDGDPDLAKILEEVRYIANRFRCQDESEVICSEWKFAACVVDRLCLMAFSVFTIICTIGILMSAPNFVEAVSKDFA

By pIC50 is commonly meant −log10 of the IC50, conventionally taken in molar units. Higher therefore signals a low IC50. In turn, `c1cc2c(cc1-c1nnc(N3CCN4CCC3CC4)o1)OCO2` [Compound A1, 4-(5-Benzo[1,3]-dioxol-5-yl-[1,3,4]oxadiazol-2-yl)-1,4-diaza-bicyclo[3.2.2]nonane Fumaric Acid Salt] had a pIC50 greater than 8.00.
